Tests used:
Type in all cases: in vivo, rat
12-week-old SD rats = assay: Bone fracture healing promoting effect in rats (simple femur fracture); details: carbon dioxide absorption 20 minutes, X-ray
Source text: Bone fracture healing promoting effect in rats (using a carbon dioxide external administration device as a means for absorbing a therapeutic agent for bone fracture, a bone growth promoting agent, or a therapeutic or prophylactic agent for bone diseases containing carbon dioxide as an active ingredient)
According to the literature (Kokubo, T et al., J Orthop Res. 2003 May; 21(3): 503-510), a simple fracture was made in a femur of 12-week-old SD rats (n=23). The rats were matched based on their body weight and were divided into two groups (a control group: n=11; a carbon dioxide absorption group: n=12). In the same procedures as Example 1 except for adopting 20 minutes of the carbon dioxide absorption time, carbon dioxide absorption into the fractured limb was conducted. After making a fracture, X-ray images of the femur were taken for 2 rats of each group at the first week, 3 rats of each group at the second week, and 6 rats of the control group and the carbon dioxide absorption group at the third week. After the completion of the test, all rats were euthanized and the femurs were collected from the rats.

5-Week-old SD rats = assay: Bone growth promoting effect in rats (transdermal carbon dioxide absorption via external administration device)
Source text: (§1) Bone growth promoting effect in rats (using a carbon dioxide external administration device as a means for absorbing a therapeutic agent for bone fracture, a bone growth promoting agent, or a therapeutic or prophylactic agent for bone diseases containing carbon dioxide as an active ingredient)
5-Week-old SD rats were used as test animals. A carbon dioxide absorption aid consisting of 93.77% by weight of water, 5% by weight of glycerin, 0.65% by weight of carbomer, 0.15% by weight of sodium alginate, 0.15% by weight of sodium dihydrogen phosphate, 0.18% by weight of sodium hydroxide, 0.10% by weight of methylparaben was applied twice a week to a hair-shaved right lower limb of a rat of the carbon dioxide absorption group (n=6) in a thickness of 2 mm under anesthesia according to the patent document 7. The lower body of the rat was covered to seal with a bag having 4 cm width and 4 cm length and the top of the bag was bound tightly with a rubber band. Then, the bag was filled with 100% concentration of carbon dioxide through a vinyl tube from a carbon dioxide bomb in order to allow carbon dioxide to be absorbed for 10 minutes. The control group (n=3) was subjected to only the anesthetic procedure. The above mentioned procedures were continued for 3 months. After 3 months, the tibias of both legs were collected from all rats and the length of them was measured by X-ray. […]

5-Week-old Wister rats = assay: Bone growth promoting effect in exercise-loaded rats
Method: as §1, with “effect in exercise-loaded rats (using” for “effect in rats (using”
5-Week-old Wister rats were matched based on their body weight and were divided into two groups (a control group: n=8; an exercise-loaded group: n=16). The running training for 30 minutes per day using an activity wheel was given to all rats for five continuous days. The exercise-loaded rats were matched based on the running distance on the fourth and fifth day as well as the body weight on the fifth day and were divided into two groups (a training group: n=8; a carbon dioxide absorption group: n=8). After shaving the lower body hair of all rats, the running training for 30 minutes per day using an activity wheel was given to the training group and the carbon dioxide absorption group. This training was done five times a week for 4 weeks. […] The tibias of both legs were collected from the rats, and then the entire length of the tibias was measured by X-ray. […] An auxotonic gristle plate of the tissue section was stained with Safranine O and its length was measured.

SMILES: O=C=O [carbon dioxide]
- fracture healing at the first and second week (12-week-old SD rats; first and second week): not healed
- rats with fracture completely healed at the third week (12-week-old SD rats; third week (control group 1/6)): 6/7
- length of the right tibia (ratio of the length between the right tibia and the left tibia) versus control group (5-Week-old SD rats; 100% carbon dioxide to right lower limb 10 minutes twice a week for 3 months, X-ray, P<0.05, FIG. 1): statistically significantly longer
- number of proliferating cells (PCNA staining of tibia auxotonic gristle area) versus control group (5-Week-old SD rats; after 3 months of carbon dioxide absorption, FIG. 2): larger
- length of the auxotonic gristle plate versus training group and control group (5-Week-old Wister rats; 4 weeks, Safranine O staining, FIG. 4): statistically significantly longer
- length of tibias versus training group (5-Week-old Wister rats; running training plus carbon dioxide absorption to both lower limbs 10 minutes, five times a week for 4 weeks, X-ray, P<0.1, FIG. 3): statistically significantly longer
